Results on eight molecules are retold here after the Kinase Knowledgebase extract (Sharma et al. 2016).

The target of this experiment is PIK3CG (human) (UniProt P48736). Description: Assessment of PIK3CG Kinase Activity.
PIK3CG (human), sequence (P48736 whole entry, looked up): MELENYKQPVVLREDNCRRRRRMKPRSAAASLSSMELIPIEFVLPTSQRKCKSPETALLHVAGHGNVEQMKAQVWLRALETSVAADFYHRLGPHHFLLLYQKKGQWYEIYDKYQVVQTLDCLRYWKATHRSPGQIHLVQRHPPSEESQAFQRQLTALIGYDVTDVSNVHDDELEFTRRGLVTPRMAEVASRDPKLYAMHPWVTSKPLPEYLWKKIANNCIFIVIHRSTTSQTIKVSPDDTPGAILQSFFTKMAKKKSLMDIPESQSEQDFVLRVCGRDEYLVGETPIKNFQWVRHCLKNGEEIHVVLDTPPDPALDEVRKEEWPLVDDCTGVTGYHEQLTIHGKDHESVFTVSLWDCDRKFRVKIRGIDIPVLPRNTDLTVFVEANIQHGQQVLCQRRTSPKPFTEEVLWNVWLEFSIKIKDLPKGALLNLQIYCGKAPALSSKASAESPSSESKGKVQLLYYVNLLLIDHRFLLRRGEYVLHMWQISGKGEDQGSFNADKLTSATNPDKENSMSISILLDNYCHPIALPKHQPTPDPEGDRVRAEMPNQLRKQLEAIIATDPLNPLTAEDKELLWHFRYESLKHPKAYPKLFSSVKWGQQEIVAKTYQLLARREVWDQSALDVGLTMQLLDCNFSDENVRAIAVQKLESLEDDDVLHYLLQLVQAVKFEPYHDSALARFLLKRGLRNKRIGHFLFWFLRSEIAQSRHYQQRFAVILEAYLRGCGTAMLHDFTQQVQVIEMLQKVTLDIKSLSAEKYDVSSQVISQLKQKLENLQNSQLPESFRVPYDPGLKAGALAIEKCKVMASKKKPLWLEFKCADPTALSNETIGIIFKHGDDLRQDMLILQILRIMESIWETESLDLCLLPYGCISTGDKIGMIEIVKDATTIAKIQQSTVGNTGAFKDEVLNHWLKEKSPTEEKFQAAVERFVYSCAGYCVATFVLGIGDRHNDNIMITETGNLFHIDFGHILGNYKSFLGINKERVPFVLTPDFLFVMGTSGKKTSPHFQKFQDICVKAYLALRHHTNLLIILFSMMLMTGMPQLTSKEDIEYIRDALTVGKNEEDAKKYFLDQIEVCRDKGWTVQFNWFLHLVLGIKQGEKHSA

Take `CC(C)N1CC(=O)N(C)c2cnc(Nc3cc(NC(=O)N[C@@H]4CCN(C5CCOCC5)C4)cc(S(C)(=O)=O)c3)nc21`: the IC50 – broadly, the concentration that inhibits the measured activity by half – was less than 800 nM.
Regarding `Cc1ccccc1CC(=O)Nc1cc(Nc2ncc3c(n2)N(C(C)C)CC(=O)N3C)cc(S(C)(=O)=O)c1`, the IC50 is less than 800 nM.
As to `CCC(C)Nc1cc(Nc2ncc3c(n2)N(C(C)C)CC(=O)N3C)cc(S(C)(=O)=O)c1` (stereo not drawn), the half-inhibitory concentration (IC50) is less than 800 nM.
As to `CC(C)N1CC(=O)N(C)c2cnc(Nc3cc(NC(=O)NC[C@H]4CCNC4)cc(S(C)(=O)=O)c3)nc21`, the IC50 is less than 800 nM.
With `CC[C@@H]1CN(c2cccc(Nc3ncc4c(n3)N(C(C)C)CC(=O)N4C)c2)C(=O)CN1C`, the half-inhibitory concentration (IC50) is less than 800 nM.
With `Cc1oncc1C(=O)Nc1cc(Nc2ncc3c(n2)N(C(C)C)CC(=O)N3C)cc(S(C)(=O)=O)c1` the figure was less than 800 nM; with `CC(C)N1CC(=O)N(C)c2cnc(Nc3cc(NC(=O)[C@H]4CCNC4)cc(S(C)(=O)=O)c3)nc21`, less than 800 nM.
With `CC(C)N1CC(=O)N(C)c2cnc(Nc3cc(NS(C)(=O)=O)cc(C(=O)NCc4ccncc4)c3)nc21`, the 50% inhibitory concentration (IC50) was less than 800 nM.
